In patent publication US4150146A, “Process for the preparation of unsymmetrically 1,3-disubstituted nitroso ureas” (priority 1976, dated 1979):

Tests used:
rat leukaemia L 5222 = experiment: Chemotherapeutic activity against rat leukaemia L 5222 (cures); type: in vivo; conditions: for L 5222 cures %: 50% of the acute LD50 i.p., treatment on day 6 after transplantation of 5 × 10^6 cells, rats surviving 60 days after treatment considered cured
Text: (§1) The chemotherapeutic activity of Compounds 1 to 8 against rat leukaemia L 5222 and s.c. Walker carcinosarcoma is shown in the accompanying Table II, together with that of still another BCNU analog and of BCNU itself.
(§2) The chemotherapeutic activity of Compounds 1 to 8,
(§3) another analog of BCNU, and BCNU against rat leukaemia
(§4) L 5222 and s.c. Walker carcinosarcoma
(§5) ^1 50% of the acute LD50 were given i.p.
^2 Treatment on day 6 after transplantation of 5 × 10^6
^3 Rats surviving 60 days after treatment were considered cured.

[1] = tested on: s.c. Walker carcinosarcoma; experiment: Chemotherapeutic activity against s.c. Walker carcinosarcoma (tumor weight inhibition); type: in vivo, rat (Sprague Dawley); conditions: for s.c. Walker T.W.I.% (tumor weight inhibition): 50% of the acute LD50 i.p., treatment on day 4 after transplantation, T.W.I. on day 8, 10 Sprague Dawley rats per group
Text: as §1, §2, §3, §4, §5
^4 Treatment on day 4 after transplantation. Each group consisted of
10 Sprague Dawley vats.
^5 T.W.I. corresponds to tumor weight inhibition in % on day 8,?

[2] = tested on: autochthonic DMBA-induced mammary carcinoma; experiment: Animal test against autochthonic DMBA-induced mammary carcinoma; type: in vivo, rat; conditions: in words; for activity against autochthonic DMBA-induced mammary carcinoma relative to Adriamycin / BCNU: comparison with Adriamycin (and BCNU)
Stability = type: physicochemical; conditions: liquid compounds
[3] = Solubility in water (or tissue fluids); type: physicochemical; conditions: comparison with BCNU, in words
Delayed toxicity = type: in vivo; conditions: contrary to BCNU; preliminary

In the case of `O=NN(CCCl)C(=O)NCCO` [Compound 6, 1-(2-hydroxyethyl)-3-(2-chloroethyl)-3-nitroso urea], the “L 5222 cures %” value (rat leukaemia L 5222) is reported as 90%, the “chemotherapeutic activity against rat leukaemia L 5222 and s.c. Walker carcinosarcoma (in words)” value (rat leukaemia L 5222; summary of Table II, both tumor models) is reported as “outstanding activity” and the “s.c. Walker T.W.I.% (tumor weight inhibition)” value [1] is reported as 85%.

For `O=NN(CCCl)C(=O)NCCCCCCNC(=O)N(CCCl)N=O` [Compound 5, 1,1'-hexamethylenebis-CNU], the “L 5222 cures %” value (rat leukaemia L 5222) was 50% and the “s.c. Walker T.W.I.% (tumor weight inhibition)” value [1] was 70%.

With `O=NN(CCCl)C(=O)NCCCl` [BCNU, 1,3-bis-(2-chloroethyl)-1-nitroso urea, reference compound] the “L 5222 cures %” value (rat leukaemia L 5222) was 70% and the “s.c. Walker T.W.I.% (tumor weight inhibition)” value [1] was 83%.

In the case of `CS(=O)(=O)OCCNC(=O)N(CCCl)N=O` [Compound 9], the “activity against rat autochthonic DMBA-induced mammary carcinoma” value ([2]; animal test) is reported as “excellent activity” and the “activity against autochthonic DMBA-induced mammary carcinoma relative to Adriamycin / BCNU” value [2] is reported as “significantly exceeding that of "Adriamycin"”.

For `O=NN(CCCl)C(=O)NCCCCNC(=O)N(CCCl)N=O` [Compound 3, 1,1'-tetramethylenebis-CNU], the “L 5222 cures %” value (rat leukaemia L 5222) was 75% and the “s.c. Walker T.W.I.% (tumor weight inhibition)” value [1] was 77%.

In the case of `O=NN(CCCl)C(=O)NCCNC(=O)N(CCCl)N=O` [Compound 1, 1,1'-ethylenebis-CNU], the “L 5222 cures %” value (rat leukaemia L 5222) is reported as 60% and the “s.c. Walker T.W.I.% (tumor weight inhibition)” value [1] is reported as 75%.

For `Cc1ccc(NC(=O)N(CCCl)N=O)cc1NC(=O)N(CCCl)N=O` [1,1'-(4-methyl-m-phenylene)bis-CNU], the “L 5222 cures %” value (rat leukaemia L 5222) was 0% and the “s.c. Walker T.W.I.% (tumor weight inhibition)” value [1] was 35%.

In the case of `O=NN(CCCl)C(=O)NCCCCO` [Compound 8, 1-(4-hydroxybutyl)-CNU], the “L 5222 cures %” value (rat leukaemia L 5222) is reported as 5%, the “s.c. Walker T.W.I.% (tumor weight inhibition)” value [1] is reported as 4% and the “stability (for elementary analysis)” value (Stability) is reported as “not stable enough for elementary analysis”.

With `O=NN(CCCl)C(=O)NCCCCCNC(=O)N(CCCl)N=O` [Compound 4, 1,1'-pentamethylenebis-CNU] the “L 5222 cures %” value (rat leukaemia L 5222) was 30% and the “s.c. Walker T.W.I.% (tumor weight inhibition)” value [1] was 68%.

For `O=NN(CCCl)C(=O)NCCCO` [Compound 7, 1-(3-hydroxypropyl)-CNU], the “L 5222 cures %” value (rat leukaemia L 5222) was 10%, the “s.c. Walker T.W.I.% (tumor weight inhibition)” value [1] was 0% and the “stability (for elementary analysis)” value (Stability) was “not stable enough for elementary analysis”.

In the case of `NC(=O)CNC(=O)N(CCCl)N=O` [Compound 10, 2-(3-(2-chloroethyl))-3-nitrosoureido acetamide], the “activity against s.c. Walker carcinosarcoma relative to BCNU” value ([1]; preliminary animal test, comparison with BCNU) is reported as “same activity against s.c. Walker carcinosarcoma as BCNU”, the “activity against autochthonic DMBA-induced mammary carcinoma relative to Adriamycin / BCNU” value [2] is reported as “better activity than "Adriamycin" or BCNU” and the “solubility in water relative to BCNU” value [3] is reported as “better solubility in water”. For the same molecule, the delayed toxicity (Delayed toxicity) was “little delayed toxicity”.

With `O=NN(CCCl)C(=O)NCCCNC(=O)N(CCCl)N=O` [Compound 2, 1,1'-propylenebis-CNU] the “L 5222 cures %” value (rat leukaemia L 5222) was 60% and the “s.c. Walker T.W.I.% (tumor weight inhibition)” value [1] was 72%.
